Here are results for seven compounds from patent publication US8563009B2, “Use of monomycolyl glycerol (MMG) as an adjuvant” (priority 2007, dated 2013).

Assay [1] relates to human peripheral blood monocyte-derived immature DC (iDC). In kind it is cell-based. The conditions noted are these: 24 h, 10 μg/ml lipid, ELISA, Tukey test.
In assay [2] the test system is IFN-γ release by PBMC upon restimulation with antigen. The assay is described as follows: IFN-γ release by lymphocytes of mice immunised with Ag85B-ESAT-6 in adjuvant. The format is in vivo, C57BL/6 mice. The conditions noted are these: for immune response (IFN-γ release by PBMC) in the blood one week after the last vaccination: Ag85B-ESAT-6 in DDA, 10 μg MMG or analogue.

The test system of assay [3] is human peripheral blood monocyte-derived immature DC (iDC). In words: Activation of human immature dendritic cells, surface markers by flow cytometry. The format is cell-based. The conditions noted are these: 24 h, 10 μg/ml lipid; for mean fold increase in CD86 levels above levels associated with untreated iDC: six individual donors.
Setting [4] is: 10 μg lipid in 250 μg DDA liposomes with 2 μg Ag85B-ESAT-6, s.c.

Consider monomycolyl glycerol [MMG], for which, in assay [1], the “IL-6 release by DC” value is given as “significantly greater levels”. In assay [2] (setting [4]), the “IFN-γ levels upon restimulation of PBMC isolated from the draining lymph node” value was 10 ng/mL. Moreover, the “immune response (IFN-γ release by PBMC) in the blood one week after the last vaccination” value (from here on “immune response (IFN-γ release by PBMC)”) in assay [2] is on record as “comparable levels of responses”. Besides, in assay [3], the “DC activation, upregulation of CD86, CD40 and HLA-DR (rank among purified apolar lipids)” value (from here on “DC activation, upregulation of CD86”) was “most potent inducer of DC activation”; the “mean fold increase in CD86 levels above levels associated with untreated iDC” value (“mean fold increase” below) turned out to be 1.91±0.29 fold.
Turning to `CCCCCCCCCCCCCCCCCC(O)C(CCCCCCCCCCCCCCCC)C(=O)OCC(O)CO` (centres unmarked) [synthetic MMG analogue with 36 carbons, 3-hydroxy-2-hexadecylicosanoic acid-2,3-dihydroxypropyl ester], the “immune response (IFN-γ release by PBMC)” value in assay [2] is “comparable levels of responses”.
Same read-out and setting: the same measure for `CCCCCCCCCCCCCCCCCC[N+](C)(C)CCCCCCCCCCCCCCCCCC.[Br-]` [DDA, dimethyldioctadecylammonium]: “lower effect”.
Consider phenolic glycolipid [PGL], for which the “IFN-γ production, draining lymph node (in words)” value (shortened to “IFN-γ production”) in assay [2] (setting [4]) is listed as “very little IFN-γ release”. Also, in assay [3], the “DC activation, upregulation of CD86” value was “induced less activation”; the “mean fold increase” value is listed as 1.52±0.26 fold.
Take phthiocerol dimycocerosate A [PDIM A]: the “IFN-γ production” value in assay [2] (setting [4]) was “albeit to a lower level”. For the same compound, in assay [3], the “DC activation, upregulation of CD86” value is given as “second most active lipid”; the “mean fold increase” value is listed as 1.82±0.43 fold.
For the compound `CCCCCCCC(O)C(CCCCCC)C(=O)OCC(O)CO` (centres unmarked) [synthetic MMG analogue with 16 carbons, 3-hydroxy-2-hexyl-decanoic acid-2,3-dihydroxypropyl ester], in assay [2], the “immune response (IFN-γ release by PBMC)” value is “comparable levels of responses”.
Take triacyl glycerols [TAGs]: the “IFN-γ production” value in assay [2] (setting [4]) is “very little IFN-γ release”. Besides, in assay [3], the “DC activation, upregulation of CD86” value is “induced less activation”; the “mean fold increase” value was 1.32±0.14 fold.
